Results taken from the RepoRT retention time repository.

Test: HILIC, HILICON iHILIC-(P) Classic, HILIC, PEEK, 100 × 2.1 mm, 5 µm, 40 °C, 0.12 mL/min, estimated dead time 1.8 min; A: water + 20 mM ammonium carbonate + 5 µM medronic acid; B: 10% water + 90% acetonitrile + 2 mM ammonium carbonate + 0.5 µM medronic acid; gradient (min/%B) 0/95 18/55 19/20 22/20 22.5/95 24/95 26/95
Conditions: stereoisomer not certain

LC retention time	SMILES
12.2 min	Nc1ncnc2c1ncn2C1OC(COP(=O)(O)OP(=O)(O)O)C(O)C1O (stereo not drawn) [ADP]
13.7 min	Nc1ncnc2c1ncn2C1OC(COP(=O)(O)OP(=O)(O)OP(=O)(O)O)C(O)C1O (stereo not drawn) [ATP]
12.5 min	O=C(CO)C(O)C(O)C(O)COP(=O)(O)O (stereo not drawn) [Fructose 6-phosphate]
15.9 min	O=P(O)(O)OCC1OC(O)(COP(=O)(O)O)C(O)C1O (stereo not drawn) [Fructose-1,6-bisphosphate]
12 min	O=C(O)C=CC(=O)O [Fumaric Acid]
9.93 min	NC(CCC(=O)NC(CS)C(=O)NCC(=O)O)C(=O)O (stereo not drawn) [GSH]
13.5 min	O=P(O)(O)OCC1OC(O)C(O)C(O)C1O (stereo not drawn) [Glucose-6-phosphate]
15.7 min	O=C(O)CC(C(=O)O)C(O)C(=O)O (stereo not drawn) [Isocitric acid]
18.5 min	NCCCCC(N)C(=O)O (stereo not drawn) [Lysine]
15.5 min	NC(=O)C1=CN(C2OC(COP(=O)(O)OP(=O)(O)OCC3OC(n4cnc5c(N)ncnc54)C(OP(=O)(O)O)C3O)C(O)C2O)C=CC1 (stereo not drawn) [NADPH]
14.3 min	NC(=O)c1ccc[n+](C2OC(COP(=O)(O)OP(=O)(O)OCC3OC(n4cnc5c(N)ncnc54)C(OP(=O)(O)O)C3O)C(O)C2O)c1 (stereo not drawn) [NADP]
11.3 min	O=P(O)(O)OCC1OC(O)C(O)C1O (stereo not drawn) [Pentose-phosphate]
10.9 min	O=C(O)CCC(=O)O [Succinic Acid]

More lines, now with the values behind:

SMILES	LC retention time
O=C(O)CCC(=O)C(=O)O [2-Oxoglutaric acid]	12.7 min
Nc1ncnc2c1ncn2C1OC(COP(=O)(O)O)C(O)C1O (stereo not drawn) [AMP]	9.81 min
CC(=O)SCCNC(=O)CCNC(=O)C(O)C(C)(C)COP(=O)(O)OP(=O)(O)OCC1OC(n2cnc3c(N)ncnc32)C(O)C1OP(=O)(O)O (stereo not drawn) [Acetyl-CoA]	10 min
Nc1ncnc2c1ncn2C1OC(CO)C(O)C1O (stereo not drawn) [Adenosine]	4.33 min
NC(N)=NCCCC(N)C(=O)O (stereo not drawn) [Arginine]	18.9 min
NC(=O)CC(N)C(=O)O (stereo not drawn) [Asparagine]	9.93 min
O=C(O)CC(O)(CC(=O)O)C(=O)O [Citric acid]	15 min
CC(C)(COP(=O)(O)OP(=O)(O)OCC1OC(n2cnc3c(N)ncnc32)C(O)C1OP(=O)(O)O)C(O)C(=O)NCCC(=O)NCCS (stereo not drawn) [CoenzymeA]	11.4 min
NC(CCC(=O)NC(CSSCC(NC(=O)CCC(N)C(=O)O)C(=O)NCC(=O)O)C(=O)NCC(=O)O)C(=O)O (stereo not drawn) [GSSG]	14.8 min
O=P(O)(O)OC1OC(CO)C(O)C(O)C1O (stereo not drawn) [Glucose-1-phosphate]	12.5 min
NC(CCC(=O)O)C(=O)O (stereo not drawn) [Glutamic acid]	9.95 min
NC(=O)CCC(N)C(=O)O (stereo not drawn) [Glutamine]	9.95 min
O=P(O)(O)OCC(O)CO (stereo not drawn) [Glycerol-3-phosphate]	11 min
CC(O)C(=O)O (stereo not drawn) [Lactic Acid]	3.31 min
O=C(O)CC(O)C(=O)O (stereo not drawn) [Malic Acid]	11.9 min
NC(=O)C1=CN(C2OC(COP(=O)(O)OP(=O)(O)OCC3OC(n4cnc5c(N)ncnc54)C(O)C3O)C(O)C2O)C=CC1 (stereo not drawn) [NADH]	9.3 min
NC(=O)c1ccc[n+](C2OC(COP(=O)(O)OP(=O)(O)OCC3OC(n4cnc5c(N)ncnc54)C(O)C3O)C(O)C2O)c1 (stereo not drawn) [NAD]	10.4 min
C=C(OP(=O)(O)O)C(=O)O [PEP]	14.5 min
O=C(CO)COP(=O)(O)O [Triose phosphate]	11.3 min
CC(=O)NC1C(OP(=O)(O)OP(=O)(O)OCC2OC(n3ccc(=O)[nH]c3=O)C(O)C2O)OC(CO)C(O)C1O (stereo not drawn) [UDP-GlcNAc]	11.7 min
